{
  "source": "patent US20170265463A1",
  "about": "“SPORICIDAL COMPOSITION” (CASE WESTERN RESERVE UNIVERSITY, priority 2016, published 2017)",
  "key": {"spores": {"tested_on": "spores", "experiment": "Other antibacterial compounds in combination with acidified ethanol (sporicidal activity)", "format": "cell-based", "details": "compared with addition of peracetic acid"}, "[1]": {"tested_on": "Clostridium difficile spores (VA11, VA17, ATCC 43593)", "experiment": "Effect of altered pH on sporicidal activity of alcohol (spore suspension, log10CFU reduction)", "format": "cell-based", "details": "70% alcohol acidified to pH<2 (pH 1.5), 5 minutes, room temperature (FIG. 7A)", "experimental": "(room temperature). B. subtilis, B. thuringiensis, and three strains of C. difficile spores were tested (described above in Spore Strains and Growth Conditions). The reaction was quenched by neutralizing 1:1 in Dey-Engley neutralization broth (BD Biosciences, San Jose, Calif., USA). Neutralized samples were serial diluted in deionized water, drop-plated, and cultured as described above in Spore Strains and Growth Conditions.\nThe reaction was quenched by neutralizing 1:1 in Dey-Engley neutralization broth (BD Biosciences, San Jose, Calif.). Neutralized samples were serially diluted in deionized water, drop-plated, and cultured as described previously. To increase the sensitivity of enumeration for samples with high levels of spore killing, 1 mL of the neutralized spore suspensions were spread-plated."}, "B. subtilis spores [2]": {"tested_on": "B. subtilis spores", "experiment": "Effect of addition of dilute peracetic acid on sporicidal activity of acidified ethanol", "format": "cell-based, Bacillus subtilis", "details": "peracetic acid alone at 450, 650 and 1500 ppm, 3 minute dwell time", "description": "(§1) The effect of addition of peracetic acid on activity of acidified ethanol against C. difficile (VA17) and B. subtilis was tested at room temperature (about 22° C.). The pH of specified test solutions was adjusted to 2.5 or 1.5 with hydrochloric acid (HCl). Ten microliters of spores (about 10^6 CFU) were inoculated into one mL of water (baseline), pH adjusted ethanol, peracetic acid at 450, 650, or 1500 ppm, pH adjusted peracetic acid at 450 and 650 ppm, ethanol plus peracetic acid at 450 and 650 ppm, and pH adjusted ethanol plus peracetic acid at 450 and 650 ppm. Spore suspensions were incubated at room temperature for three minutes. The reaction was quenched by neutralizing 1:1 in Dey-Engley neutralization broth (BD Biosciences). […] Experiments were performed in triplicate.\n(§2) The effect of the addition of dilute PAA on the activity of acidified ethanol against C. difficile strain VA17 and B. subtilis was tested at 22° C. The pH of specified test solutions was adjusted to 2.5 or 1.5 with hydrochloric acid. Ten μL of spores (˜10^6 CFU) were inoculated into one mL of water (baseline), pH adjusted ethanol, PAA at 450, 650, or 1500 ppm, pH adjusted PAA at 450 and 650 ppm, ethanol plus PAA at 450 and 650 ppm, and pH adjusted ethanol plus PAA at 450 and 650 ppm and incubated for 3 minutes. The reaction was quenched by neutralizing 1:1 in Dey-Engley neutralization broth. […]"}, "[3]": {"details": "in-use concentrations of surface disinfectants (~1500 ppm); cited from earlier work"}, "[4]": {"tested_on": "C. difficile (VA17) spores", "experiment": "Effect of addition of dilute peracetic acid on sporicidal activity of acidified ethanol", "format": "cell-based, Clostridium difficile", "details": "peracetic acid alone at 450, 650 and 1500 ppm, 3 minute dwell time", "description": "as §1, §2"}, "[5]": {"tested_on": "non-toxigenic C. difficile spores (ATCC 43593)", "experiment": "Reduction of C. difficile spores on hands of volunteers (fingerpad method, modified ASTM E 2276-10)", "format": "in vivo, Clostridium difficile", "details": "Example 3; P>0.05", "description": "A modification of the “Standard Test Method for Determining the Bacteria-Eliminating Effectiveness of Hygienic Handwash and Handrub Agents Using the Fingerpads of Adults” (American Society for Testing and Materials E 2276-10) was used to determine the efficacy of test solutions against non-toxigenic C. difficile spores. Each fingerpad of both hands were contaminated with 10 μL of a liquid inoculum containing 6 log10CFU of ATCC 43593 spores. The fingerpads were rubbed together until the inoculum was dry. Hand contamination levels were measured using the fingerpad sampling method. In brief, the fingerpads of each hand were rubbed with slight friction against the bottom of a 150 mm×15 mm Petri dish filled with 25 mL of Dey-Engley neutralizer (BD Biosciences, San Jose, Calif., USA) for 30 seconds. […] Log10 reductions were calculated by subtracting log10 CFU recovered after hand hygiene treatment from log10 CFU recovered from hands without treatment.\nA crossover design was used such that each volunteer was exposed to three of the disinfection procedures. […] The person reading the plates to quantify spore counts was blinded to the test product that was used. […]\nSimilar experiments were conducted to assess the efficacy of dilute peracetic acid-containing solutions and acidified ethanol solutions at 42° C. […] Reductions in spore counts were then determined as described previously. […]"}, "B. thuringiensis spores [6]": {"tested_on": "B. thuringiensis spores", "details": "room temperature, 1, 5, 10 minutes", "description": "(§3) To assess whether acidified ethanol truly kills spores or only renders them incapable of germination, recovery of killed spores was assessed by incubation in lysozyme or dodecylamine which bypass germinant receptors. To assess whether acidified ethanol kills spores through alteration in the permeability of the dormant spores' inner membrane barrier, we evaluated whether spore killing occurs in parallel with dipicolinic acid (DPA) release. C. difficile (VA17), B. thuringiensis and B. subtilis spores were suspended in water, water altered to pH 1.5, 70% ethanol, 70% ethanol altered to pH 1.5, 3.0 or 3.0 with increased ionic strength, and 1 mM dodecylamine (induces DPA release in spores of several species). After 1, 5, and 10 minutes of incubation at room temperature (about 22° C.), DPA release was assessed as previously described. […] Fluorescence was measured using a plate reader (SpectraMaxM2, Bucher Biotec, Basel, Switzerland) with the following settings: time resolved fluorescence (delay 50 μs, interval 1200 μs) at an excitation wavelength of 272 nm, emission wavelength of 545 nm, and 5 endpoint readings per sample at 22° C. To determine percent DPA release, relative fluorescence units (RFU) of test solutions were compared to the RFU of total spore DPA content (supernatant of 10^7 CFU spores suspended in water boiled for 30 minutes) as previously described."}, "B. subtilis spores [7]": {"tested_on": "B. subtilis spores", "details": "room temperature, 1, 5, 10 minutes", "description": "as §3"}, "[8]": {"tested_on": "C. difficile (VA17) spores", "experiment": "Dipicolinic acid (DPA) release, terbium fluorescence", "format": "cell-based, Clostridium difficile", "details": "room temperature, within 10 minutes; compared to water, 70% ethanol and pH 1.5 water", "description": "as §3"}, "[9]": {"tested_on": "C. difficile spores (strains VA11 and VA17)", "details": "70% ethanol, no pH alteration", "description": "(§4) To determine the effect of elevated temperature on the sporicidal efficacy of ethanol, ten microliters of spores (˜10^6 CFU) were incubated in one mL of 70% ethanol or deionized water at about 22° C. (room temperature), 55° C. or 80° C. The pH was not altered for these experiments. B. subtilis, B. thuringiensis, and VA11 and VA17 C. difficile spores were tested (described above in Spore Strains and Growth Conditions). After 0, 5, 10, 20, 30 and 60 minutes of incubation at the appropriate temperature, aliquots of each spore suspension were serial diluted in deionized water, drop-plated, and cultured as described above in Spore Strains and Growth Conditions. Log10CFU reduction of spores was determined by calculating the difference in log10CFU recovered from baseline (spores incubated in water) and experimental groups (spores incubated in ethanol)."}, "B. thuringiensis spores [10]": {"tested_on": "B. thuringiensis spores", "details": "70% ethanol, no pH alteration, 80° C., 60 minutes", "description": "as §4"}, "B. subtilis spores [11]": {"tested_on": "B. subtilis spores", "details": "70% ethanol, no pH alteration, 80° C., 60 minutes", "description": "as §4"}, "[12]": {"tested_on": "toxigenic C. difficile spores", "design": "species or system Clostridium difficile", "details": "applied as a liquid or wipe", "excerpt": "Reduction of toxigenic C. difficile spores inoculated on gloves of volunteers was compared after 30 or 60 second exposures to the sporicidal ethanol formulation, 70% ethanol, and 1:10 or 1:100 dilutions of household bleach; the solutions were applied both as a liquid solution and as a wipe. We also examined the efficacy of the sporicidal ethanol formulation for elimination of spore contamination from the gloves of healthcare personnel interacting with C. difficile infection (CDI) patients or their environment. To determine the potential for the disinfectants to damage clothing, the solutions were applied to pieces of colored cloth."}},
  "data": [
    {"smiles": "II", "note": "[iodine]", "values": [
      {"measurement": "Enhancement of sporicidal activity on addition to acidified ethanol", "setting": "spores", "result": "did not result in similar enhancement of sporicidal activity"}
    ]},
    {"smiles": "CC(C)O", "note": "[2-propanol]", "values": [
      {"measurement": "Sporicidal activity against C. difficile spores on acidification of the alcohol", "setting": "[1]", "result": "induced sporicidal activity"}
    ]},
    {"smiles": "[O][Cl+][O-]", "note": "[chlorine dioxide]", "values": [
      {"measurement": "Enhancement of sporicidal activity on addition to acidified ethanol", "setting": "spores", "result": "did not result in similar enhancement of sporicidal activity"}
    ]},
    {"smiles": "CC(=O)OO", "note": "[peracetic acid]", "values": [
      {"measurement": "Reduction of B. subtilis spores", "setting": "B. subtilis spores [2]", "result": "in a dose-dependent fashion"},
      {"measurement": "Skin irritation", "setting": "[3]", "result": "does not cause skin irritation"},
      {"measurement": "Reduction of C. difficile spores", "setting": "[4]", "result": "in a dose-dependent fashion"},
      {"measurement": "Reduction in C. difficile spores on hands compared with soap and water hand wash", "setting": "[5]", "result": "not significantly different"}
    ]},
    {"smiles": "CCCO", "note": "[1-propanol]", "values": [
      {"measurement": "Sporicidal activity against C. difficile spores on acidification of the alcohol", "setting": "[1]", "result": "induced sporicidal activity"}
    ]},
    {"smiles": "OCl", "note": "[sodium hypochlorite]", "values": [
      {"measurement": "Enhancement of sporicidal activity on addition to acidified ethanol", "setting": "spores", "result": "did not result in similar enhancement of sporicidal activity"}
    ]},
    {"smiles": "[Cu]", "note": "[copper]", "values": [
      {"measurement": "Enhancement of sporicidal activity on addition to acidified ethanol", "setting": "spores", "result": "did not result in similar enhancement of sporicidal activity"}
    ]},
    {"smiles": "CCO", "note": "[70% ethanol, ethanol]", "values": [
      {"measurement": "DPA release from B. thuringiensis spores", "setting": "B. thuringiensis spores [6]", "result": "low levels of baseline DPA release"},
      {"measurement": "DPA release from B. subtilis spores", "setting": "B. subtilis spores [7]", "result": "did not"},
      {"measurement": "DPA release from C. difficile spores", "setting": "[8]", "result": "low levels of baseline DPA release"},
      {"measurement": "Log10CFU reduction of C. difficile spores", "setting": "[9]; 55° C., 60 minutes", "result": 1, "unit": "log10CFU"},
      {"measurement": "Detectable C. difficile spores", "setting": "[9]; 80° C., 10 minutes", "result": "no C. difficile spores were detectable"},
      {"measurement": "Log10CFU reduction of B. thuringiensis spores", "setting": "B. thuringiensis spores [10]", "result": "> 5", "unit": "log10CFU"},
      {"measurement": "Log10CFU reduction of B. subtilis spores", "setting": "B. subtilis spores [11]", "result": "> 4", "unit": "log10CFU"},
      {"measurement": "Reduction in spores on gloves", "setting": "[12]", "result": "< 1", "unit": "log"}
    ]}
  ]
}
